Data from patent US9096581B2, “Fluoroethyl thiamine or salts thereof and application thereof in preparation of anticoccidial drugs” (GUANGZHOU ORIGMOL FEED-ADDITIVE CO., LTD, priority 2012, dated 2015).
“Also recorded” adds a separate entry of the source. Counter-ions that a name gives are not always drawn.

Tests used:
[1] = test system: Eimeria tenella JM strains (amprolium-resistant); assay: Effect on amprolium-resistant coccidium strain in chickens (Embodiment 4); type: in vivo; settings: 125 ppm in feed; for number of oocysts in cecum / lesion value / the average weight gain: 7th day; for lesion value: cecum, scale 0-40; for survival rate / the average weight gain / bloody feces scoring: chickens; for bloody feces scoring: 5 days after infecting, score 0-4; for oocyst value: converted per Table 2; for relative weight gain rate: vs non-infected non-drug control
Procedure: (§1) 1-day-old Lingnan yellow chickens, purchased from Poultry Research Unit, Bureau of Animal Husbandry, Guangdong Academy of Agricultural Sciences, bred under coccidium-free environment, and subjected to grouping and experiment after no coccidium oocyst is found in feces through microscopic examination when the chickens are 14 days old.
Eimeria tenella JM strains, separated and purified from a chicken farm in Jiangmen, Guangdong, which are tested and identified to be amprolium-resistant coccidium strains. Breeding and amplifying in chickens before the experiment, collecting fresh eggs, sporulating, and preserving at 4° C. for later use.
(§2) Weighing the 14-day-old experiment chickens one by one, rejecting emaciated chickens or overweighted chickens, selecting healthy chickens of which the individual body weight difference is within 20 g, and dividing into 4 groups with 30 chickens in each group. Groups 1 and 2 are respectively a non-drug-applied and non-coccidium-killed control group and a coccidium-infected and non-drug-applied control group, and Groups 3 and 4 are respectively added with fluoroethyl thiamine hydrochloride and amprolium. Feeding with feed containing different drugs on the day of experiment grouping according to Table 6, enabling the chickens to freely take in the feed, and feeding the chickens until the experiment ends.
Except the non-coccidium-infected and non-drug-applied control group, giving each experiment chicken in each experiment group with 1.0×10^5 eimeria tenella sporulated oocysts via the crop on the next day of the grouping day. During experiment, observing and recording the spirit, appetite, bloody feces situation, death count and the like of the chickens every day. Performing bloody feces scoring on the chickens in each group 5 days after infecting. On the 7th day, respectively weighing all the chickens in each group, then autopsying them, observing cecum lesions and counting the oocysts in the cecum.
The evaluation standard is the same with Embodiment 2.

[2] = test system: Eimeria necatrix GD strains; assay: Anticoccidial effect on Eimeria necatrix in chickens (Embodiment 7); type: in vivo; settings: 125 ppm in feed; for average weight gain / number of oocysts in feces: 7th day after infecting; for survival rate: chickens; for relative decrement rate of oocysts: vs infected non-drug control; for relative weight gain rate: vs non-infected non-drug control
Text: as §1
Eimeria necatrix GD strains, having no resistance to various anticoccidial drugs. Breeding and amplifying in chickens before the experiment, collecting fresh oocysts, sporulating, and preserving at 4° C. for later use.
as §2, with “and dividing to 4 groups” for “and dividing into 4 groups”, “4 are added with” for “4 are respectively added with”, “thiamine hydrochloride or amprolium according to Table 12. Feeding with” for “thiamine hydrochloride and amprolium. Feeding with”, “of experiment grouping, enabling the” for “of experiment grouping according to Table 6, enabling the”
Except the non-coccidium-infected and non-drug-applied control group, giving each experiment chicken in each experiment group with 1×10^5 eimeria necatrix sporulated oocysts via the crop on the next day of the grouping day. During experiment, observing and recording the spirit, appetite, bloody feces situation, death count and the like of the chickens every day. On the 7th day after infecting, respectively weighing each group, calculating the relative weight gain rate, simultaneously collecting feces samples, and counting the number of oocysts per gram of feces.
The anticoccidial effect evaluation is the same with Embodiment 5.

| SMILES | anticoccidial index (ACI) [1] | effect on amprolium-resistant strain, in words [1] | number of oocysts in cecum [1] | lesion value [1] | survival rate [1] [%] | the average weight gain [1] [g/chicken] | bloody feces scoring [1] | oocyst value [1] | relative weight gain rate [1] [%] | average weight gain [2] [g] | number of oocysts in feces [2] [g⁻¹] | survival rate [2] [%] | relative decrement rate of oocysts [2] [%] | relative weight gain rate [2] [%] | inhibition of eimeria necatrix, in words ([2]; hydrochloride) |
| --- | --- | --- | --- | --- | --- | --- | --- | --- | --- | --- | --- | --- | --- | --- | --- |
| CCCc1ncc(C[n+]2ccccc2C)c(N)n1 [amprolium, Amprolium, reference compound] | 93.5 | eimeria tenella JM strain has resistance to amprolium | 2.878 ×10^6/chicken | 28.4 | 60 | 135.6 | 4 | 10 | 71.9 | 159.9 | 3600 | 100 | 73.3 | 86.2 |  |
| CCc1ncc(C[n+]2csc(CCF)c2C)c(N)n1 [fluoroethyl thiamine hydrochloride, 3-[(4-amino-2-ethyl-5-pyrimidyl)-methylene]-5-(2-fluoroethyl)-4-methyl thiazole chloride hydrochloride] | 196.8 | can protect the experiment chickens from being infected by the strains | 0 ×10^6/chicken | 0 | 100 | 182.7 | 0 | 0 | 96.8 | 172.5 | 1900 | 100 | 85.9 | 92.9 | can effectively control infection of the eimeria necatrix; also recorded: superior to amprolium in eimeria necatrix inhibition |
